Among the data in patent publication US11180494B2, “Substituted amino acids as integrin inhibitors” (Pliant Therapeutics, Inc., priority 2018, dated 2021) are IC50 values, retold here.

For the first assay, the target named is human integrin αvβ6 (Homo sapiens (Human), UniProt P06756+P18564). The assay can be described thus: Proximity-based integrin receptor binding assay (ALPHASCREEN) for inhibitor potency. Particulars: inhibition of binding of TGF-b1 LAP to human integrin αvβ6; values given in ranges. The procedure, abridged: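 AlphaScreen: integrin, compound, TGF-b1 LAP, biotinylated anti-LAP antibody and acceptor beads incubated 2 hours, then streptavidin donor beads 30 minutes, at room temperature in 50 mM Tris-HCl pH 7.5, 0.1% BSA, 1 mM CaCl2 and MgCl2. Excitation 680 nm, emission 520-620 nm; IC50 by four-parameter logistic fit.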
Chain of human integrin αvβ6 (P06756 31-992): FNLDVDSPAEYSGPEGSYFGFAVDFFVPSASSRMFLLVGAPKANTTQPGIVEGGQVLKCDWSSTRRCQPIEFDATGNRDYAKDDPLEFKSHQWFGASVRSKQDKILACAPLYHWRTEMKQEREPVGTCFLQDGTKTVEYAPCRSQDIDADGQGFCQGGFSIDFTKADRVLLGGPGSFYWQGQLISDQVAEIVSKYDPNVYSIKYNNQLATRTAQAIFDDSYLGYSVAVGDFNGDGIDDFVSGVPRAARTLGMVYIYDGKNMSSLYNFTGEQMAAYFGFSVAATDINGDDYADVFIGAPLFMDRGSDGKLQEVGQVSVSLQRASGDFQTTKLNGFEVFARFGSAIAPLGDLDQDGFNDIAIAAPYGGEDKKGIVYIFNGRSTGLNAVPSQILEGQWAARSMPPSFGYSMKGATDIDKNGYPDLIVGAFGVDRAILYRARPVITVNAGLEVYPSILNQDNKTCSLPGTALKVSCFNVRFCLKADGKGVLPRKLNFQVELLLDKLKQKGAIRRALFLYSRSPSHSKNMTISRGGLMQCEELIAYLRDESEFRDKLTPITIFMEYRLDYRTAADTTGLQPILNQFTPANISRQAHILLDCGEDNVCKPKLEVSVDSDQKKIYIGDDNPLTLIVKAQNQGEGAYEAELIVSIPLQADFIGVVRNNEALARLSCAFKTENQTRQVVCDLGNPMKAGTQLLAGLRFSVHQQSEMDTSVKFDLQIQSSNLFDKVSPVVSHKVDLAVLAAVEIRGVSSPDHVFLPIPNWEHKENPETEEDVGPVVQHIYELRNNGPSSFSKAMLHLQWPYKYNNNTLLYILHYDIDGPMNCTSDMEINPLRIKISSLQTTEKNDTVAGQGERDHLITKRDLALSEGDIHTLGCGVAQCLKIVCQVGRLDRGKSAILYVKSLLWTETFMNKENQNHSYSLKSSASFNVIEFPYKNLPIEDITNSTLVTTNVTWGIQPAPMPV
Chain of human integrin αvβ6 (P18564 22-707): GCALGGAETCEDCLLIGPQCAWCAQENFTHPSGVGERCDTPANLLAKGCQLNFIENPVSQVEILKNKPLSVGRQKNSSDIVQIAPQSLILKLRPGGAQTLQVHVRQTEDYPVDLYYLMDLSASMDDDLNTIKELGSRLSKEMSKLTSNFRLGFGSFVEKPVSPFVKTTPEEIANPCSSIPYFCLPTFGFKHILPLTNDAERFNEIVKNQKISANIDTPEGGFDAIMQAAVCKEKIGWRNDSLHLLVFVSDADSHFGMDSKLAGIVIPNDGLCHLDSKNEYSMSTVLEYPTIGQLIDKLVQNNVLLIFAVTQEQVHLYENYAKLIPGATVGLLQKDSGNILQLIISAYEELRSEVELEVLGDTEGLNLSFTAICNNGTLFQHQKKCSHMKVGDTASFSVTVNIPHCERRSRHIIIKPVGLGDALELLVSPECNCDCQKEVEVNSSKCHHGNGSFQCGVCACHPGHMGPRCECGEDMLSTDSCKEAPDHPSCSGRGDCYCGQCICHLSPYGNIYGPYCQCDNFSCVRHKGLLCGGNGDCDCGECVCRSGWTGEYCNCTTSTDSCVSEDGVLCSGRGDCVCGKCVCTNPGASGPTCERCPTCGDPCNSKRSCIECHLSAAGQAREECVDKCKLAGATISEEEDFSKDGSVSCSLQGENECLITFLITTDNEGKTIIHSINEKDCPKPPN
(In general: Bead proximity is the source of the signal in Alpha formats.)
For orientation: IC50 means the midpoint of a concentration-inhibition curve. Take `O=C(N[C@@H](CCO[C@H]1C[C@@H](CCc2ccc3c(n2)NCCC3)C1)C(=O)O)c1ccncc1` [Compound 68, N-isonicotinoyl-O-(cis-3-(2-(5,6,7,8-tetrahydro-1,8-naphthyridin-2-yl)ethyl)cyclobutyl)homoserine]: the IC50 was 250 to 1000 nM.
As for `O=C(N[C@@H](CCO[C@H]1C[C@@H](CCc2ccc3c(n2)NCCC3)C1)C(=O)O)c1cccc(-c2cncs2)c1` [Compound 69, O-(cis-3-(2-(5,6,7,8-tetrahydro-1,8-naphthyridin-2-yl)ethyl)cyclobutyl)-N-(3-(thiazol-5-yl)benzoyl)homoserine], the IC50 lay in the range of 250 to 1000 nM.
For `O=C(O)C(CCO[C@H]1C[C@@H](CCc2ccc3c(n2)NCCC3)C1)NC(=O)[C@@H](CO)c1ccccc1` (stereo partly drawn) [Compound 70, N—((R)-3-hydroxy-2-phenylpropanoyl)-O-(cis-3-(2-(5,6,7,8-tetrahydro-1,8-naphthyridin-2-yl)ethyl)cyclobutyl)homoserine], the IC50 lay in the range of 50 to 250 nM.
On the same count and under the same terms, in the case of `O=C(O)C(CCO[C@H]1C[C@@H](CCc2ccc3c(n2)NCCC3)C1)NC(=O)[C@@H](CO)c1ccccc1` (stereo partly drawn) [Compound 71, N—((R)-3-hydroxy-2-phenylpropanoyl)-O-(cis-3-(2-(5,6,7,8-tetrahydro-1,8-naphthyridin-2-yl)ethyl)cyclobutyl)homoserine] it was more than 1000 nM; in that of `Cn1cc(-c2cccc(C(=O)NC(CCO[C@H]3C[C@H](CCc4ccc5c(n4)NCCC5)C3)C(=O)O)c2)cn1` (stereo partly drawn) [Compound 72], less than 50 nM.
As for `Cn1cc(-c2cccc(C(=O)NC(CCOCCCCc3ccc4c(n3)NCCC4)C(=O)O)c2)cn1` (stereo not drawn) [Compound 73, N-(3-(1-methyl-1H-pyrazol-4-yl)benzoyl)-O-(4-(5,6,7,8-tetrahydro-1,8-naphthyridin-2-yl)butyl)homoserine], the IC50 lay in the range of 50 to 250 nM.
With `O=C(O)C(CCOCCCCc1ccc2c(n1)NCCC2)NC(=O)[C@@H](O)c1ccccc1` (stereo partly drawn) [Compound 74, N—((S)-2-hydroxy-2-phenylacetyl)-O-(4-(5,6,7,8-tetrahydro-1,8-naphthyridin-2-yl)butyl)homoserine], the IC50 was more than 1000 nM.
As for `O=C(O)C(CCOCCCCc1ccc2c(n1)NCCC2)NC(=O)[C@@H](O)c1ccccc1` (stereo partly drawn) [Compound 75, N—((S)-2-hydroxy-2-phenylacetyl)-O-(4-(5,6,7,8-tetrahydro-1,8-naphthyridin-2-yl)butyl)homoserine], the 50% inhibitory concentration (IC50) lay within 250 to 1000 nM.
In the case of `O=C(O)[C@H](CCOCCCCc1ccc2c(n1)NCCC2)NC(=O)[C@H](O)c1ccccc1` [Compound 76, N—((R)-2-hydroxy-2-phenylacetyl)-O-(4-(5,6,7,8-tetrahydro-1,8-naphthyridin-2-yl)butyl)homoserine], the IC50 fell in the range of 250 to 1000 nM.
As to `O=C(O)C(CCO[C@H]1C[C@H](CCc2ccc3c(n2)NCCC3)C1)NC(=O)[C@@H](O)c1ccccc1` (stereo partly drawn) [Compound 78, N—((S)-2-hydroxy-2-phenylacetyl)-O-(trans-3-(2-(5,6,7,8-tetrahydro-1,8-naphthyridin-2-yl)ethyl)cyclobutyl)homoserine], the IC50 was more than 1000 nM.
Turning to `O=C(O)C(CCO[C@H]1C[C@H](CCc2ccc3c(n2)NCCC3)C1)NC(=O)[C@@H](O)c1ccccc1` (stereo partly drawn) [Compound 79, N—((S)-2-hydroxy-2-phenylacetyl)-O-(trans-3-(2-(5,6,7,8-tetrahydro-1,8-naphthyridin-2-yl)ethyl)cyclobutyl)homoserine], the IC50 lay within 50 to 250 nM.
Consider `O=C(O)C(CCO[C@H]1C[C@H](CCc2ccc3c(n2)NCCC3)C1)NC(=O)[C@H](O)c1ccccc1` (stereo partly drawn) [Compound 80, N—((R)-2-hydroxy-2-phenylacetyl)-O-(trans-3-(2-(5,6,7,8-tetrahydro-1,8-naphthyridin-2-yl)ethyl)cyclobutyl)homoserine], for which the IC50 was in the range of 50 to 250 nM.
For `O=C(O)C(CCO[C@H]1C[C@H](CCc2ccc3c(n2)NCCC3)C1)NC(=O)[C@H](O)c1ccccc1` (stereo partly drawn) [Compound 81, N—((R)-2-hydroxy-2-phenylacetyl)-O-(trans-3-(2-(5,6,7,8-tetrahydro-1,8-naphthyridin-2-yl)ethyl)cyclobutyl)homoserine], the IC50 was more than 1000 nM.
Consider `O=C(O)C(CCO[C@H]1C[C@H](CCc2ccc3c(n2)NCCC3)C1)NC(=O)C1(c2ccccc2)CC1` (stereo partly drawn) [Compound 82, N-(1-phenylcyclopropane-1-carbonyl)-O-(trans-3-(2-(5,6,7,8-tetrahydro-1,8-naphthyridin-2-yl)ethyl)cyclobutyl)homoserine], for which the IC50 lay within 250 to 1000 nM.
In the case of `O=C(O)C(CCO[C@H]1C[C@H](CCc2ccc3c(n2)NCCC3)C1)NC(=O)C1(c2ccccc2)CCC1` (stereo partly drawn) [Compound 84, N-(1-phenylcyclobutane-1-carbonyl)-O-(trans-3-(2-(5,6,7,8-tetrahydro-1,8-naphthyridin-2-yl)ethyl)cyclobutyl)homoserine], the IC50 was less than 50 nM.
Regarding `CC(C)(Cc1ccccc1)C(=O)NC(CCO[C@H]1C[C@H](CCc2ccc3c(n2)NCCC3)C1)C(=O)O` (stereo partly drawn) [Compound 85, N-(2,2-dimethyl-3-phenylpropanoyl)-O-(trans-3-(2-(5,6,7,8-tetrahydro-1,8-naphthyridin-2-yl)ethyl)cyclobutyl)homoserine], the IC50 lay in the range of 250 to 1000 nM.
`CC(C)(C)OC(=O)NC(CCO[C@H]1C[C@H](CCc2ccc3c(n2)NCCC3)C1)C(=O)O` (stereo partly drawn) [Compound 86, N-(tert-butoxycarbonyl)-O-(trans-3-(2-(5,6,7,8-tetrahydro-1,8-naphthyridin-2-yl)ethyl)cyclobutyl)homoserine]: the IC50 fell in the range of 250 to 1000 nM.
In the case of `CC(C)(C(=O)NC(CCO[C@H]1C[C@H](CCc2ccc3c(n2)NCCC3)C1)C(=O)O)c1ccc(F)cc1` (stereo partly drawn) [Compound 87, N-(2-(4-fluorophenyl)-2-methylpropanoyl)-O-(trans-3-(2-(5,6,7,8-tetrahydro-1,8-naphthyridin-2-yl)ethyl)cyclobutyl)homoserine], the IC50 fell in the range of 250 to 1000 nM.
Turning to `CC1(C(=O)NC(CCO[C@H]2C[C@H](CCc3ccc4c(n3)NCCC4)C2)C(=O)O)COC1` (stereo partly drawn) [Compound 88, N-(3-methyloxetane-3-carbonyl)-O-(trans-3-(2-(5,6,7,8-tetrahydro-1,8-naphthyridin-2-yl)ethyl)cyclobutyl)homoserine], the IC50 lay in the range of 50 to 250 nM.
Take `CC(C)(CO)C(=O)NC(CCO[C@H]1C[C@H](CCc2ccc3c(n2)NCCC3)C1)C(=O)O` (stereo partly drawn) [Compound 89, N-(3-hydroxy-2,2-dimethylpropanoyl)-O-(trans-3-(2-(5,6,7,8-tetrahydro-1,8-naphthyridin-2-yl)ethyl)cyclobutyl)homoserine]: the IC50 fell in the range of 250 to 1000 nM.
Same read-out and setting: in the case of `COCC(C)(C)C(=O)NC(CCO[C@H]1C[C@H](CCc2ccc3c(n2)NCCC3)C1)C(=O)O` (stereo partly drawn) [Compound 90, N-(3-methoxy-2,2-dimethylpropanoyl)-O-(trans-3-(2-(5,6,7,8-tetrahydro-1,8-naphthyridin-2-yl)ethyl)cyclobutyl)homoserine] it was 250 to 1000 nM; in that of `CC(C)(C(=O)NC(CCO[C@H]1C[C@H](CCc2ccc3c(n2)NCCC3)C1)C(=O)O)c1cccnc1` (stereo partly drawn) [Compound 91, N-(2-methyl-2-(pyridin-3-yl)propanoyl)-O-(trans-3-(2-(5,6,7,8-tetrahydro-1,8-naphthyridin-2-yl)ethyl)cyclobutyl)homoserine], 50 to 250 nM; in that of `O=C(NC(CCO[C@H]1C[C@H](CCc2ccc3c(n2)NCCC3)C1)C(=O)O)C1Cc2ccccc2C1` (stereo partly drawn) [Compound 92, N-(2,3-dihydro-1H-indene-2-carbonyl)-O-(trans-3-(2-(5,6,7,8-tetrahydro-1,8-naphthyridin-2-yl)ethyl)cyclobutyl)homoserine], 250 to 1000 nM.
With `CC(C)(CC#N)C(=O)NC(CCO[C@H]1C[C@H](CCc2ccc3c(n2)NCCC3)C1)C(=O)O` (stereo partly drawn) [Compound 93, N-(3-cyano-2,2-dimethylpropanoyl)-O-(trans-3-(2-(5,6,7,8-tetrahydro-1,8-naphthyridin-2-yl)ethyl)cyclobutyl)homoserine], the IC50 was in the range of 50 to 250 nM.
Turning to `CC(C)(C)C(=O)NC(CCO[C@H]1C[C@H](CCc2ccc3c(n2)NCCC3)C1)C(=O)O` (stereo partly drawn) [Compound 94, N-pivaloyl-O-(trans-3-(2-(5,6,7,8-tetrahydro-1,8-naphthyridin-2-yl)ethyl)cyclobutyl)homoserine], the IC50 lay within 50 to 250 nM.
Turning to `O=C(O)C(CCO[C@H]1C[C@H](CCc2ccc3c(n2)NCCC3)C1)NC(=O)C1(c2ccccc2)CC1` (stereo partly drawn) [Compound 97, N-(1-phenylcyclopropane-1-carbonyl)-O-(trans-3-(2-(5,6,7,8-tetrahydro-1,8-naphthyridin-2-yl)ethyl)cyclobutyl)homoserine], the IC50 was less than 50 nM.
In the case of `CC(C)(Cc1ccccc1)C(=O)NC(CCO[C@H]1C[C@H](CCc2ccc3c(n2)NCCC3)C1)C(=O)O` (stereo partly drawn) [Compound 100, N-(2,2-dimethyl-3-phenylpropanoyl)-O-(trans-3-(2-(5,6,7,8-tetrahydro-1,8-naphthyridin-2-yl)ethyl)cyclobutyl)homoserine], the IC50 is 50 to 250 nM.
Turning to `CC(C)(C)OC(=O)NC(CCO[C@H]1C[C@H](CCc2ccc3c(n2)NCCC3)C1)C(=O)O` (stereo partly drawn) [Compound 101, N-(tert-butoxycarbonyl)-O-(trans-3-(2-(5,6,7,8-tetrahydro-1,8-naphthyridin-2-yl)ethyl)cyclobutyl)homoserine], the IC50 is less than 50 nM.

Still in this assay, the particulars now being: inhibition of binding of TGF-b1 LAP to human integrin αvβ6; values given in ranges; listed as 83*.
As to `CC(C)(C(=O)NC(CCO[C@H]1C[C@H](CCc2ccc3c(n2)NCCC3)C1)C(=O)O)c1ccccc1` (stereo partly drawn) [Compound 83, N-(2-methyl-2-phenylpropanoyl)-O-(trans-3-(2-(5,6,7,8-tetrahydro-1,8-naphthyridin-2-yl)ethyl)cyclobutyl)homoserine], the IC50 is more than 1000 nM.

The same assay, now with this note: inhibition of binding of TGF-b1 LAP to human integrin αvβ6; values given in ranges; listed as 98**.
As to `CC(C)(C(=O)NC(CCO[C@H]1C[C@H](CCc2ccc3c(n2)NCCC3)C1)C(=O)O)c1ccccc1` (stereo partly drawn) [Compound 98, N-(2-methyl-2-phenylpropanoyl)-O-(trans-3-(2-(5,6,7,8-tetrahydro-1,8-naphthyridin-2-yl)ethyl)cyclobutyl)homoserine], the IC50 is less than 50 nM.
